Assay results taken from EP4603105A1, “PHARMACEUTICAL COMPOSITION CONTAINING CYCLIC COMPOUND HAVING SELECTIVE KRAS INHIBITORY EFFECT AGAINST HRAS AND NRAS” (CHUGAI SEIYAKU KABUSHIKI KAISHA, priority 2022, dated 2024).
Where a SMILES comes first, the peptide text is derived from it. Bridges are numbered along the chain shown (N, C = ends). [ ]: non-standard residue; d: D form. The star is where a group is joined. hPhe(3-Cl-4-CF3) = N[C@@H](CCc1ccc(C(F)(F)F)c(Cl)c1)C(=O)O; NPrPhe(4-CF3) = CCCN[C@@H](Cc1ccc(C(F)(F)F)cc1)C(=O)O; NMeGly(cPent) = CN[C@H](C(=O)O)C1CCCC1; Ac4c(3,3-Me2) = CC1(C)CC(N)(C(=O)O)C1; NMeD = CN[C@@H](CC(=O)O)C(=O)O; NMeL = CN[C@@H](CC(C)C)C(=O)O; Morpholide = C1CN(*)CCO1; Ac5c = NC1(C(=O)O)CCCC1; Aze = O=C(O)[C@@H]1CCN1; Ac4c = NC1(C(=O)O)CCC1; NEtG = CCNCC(=O)O; Sar = CNCC(=O)O; Propyl = CCC*

Tests used:
[1] = biological target: GDP-bound NRAS wild-type protein (Homo sapiens, UniProt P01111); assay: Binding to NRAS by surface plasmon resonance (SPR), KD and KD ratio to KRAS
Chain of GDP-bound NRAS wild-type protein (P01111 whole entry): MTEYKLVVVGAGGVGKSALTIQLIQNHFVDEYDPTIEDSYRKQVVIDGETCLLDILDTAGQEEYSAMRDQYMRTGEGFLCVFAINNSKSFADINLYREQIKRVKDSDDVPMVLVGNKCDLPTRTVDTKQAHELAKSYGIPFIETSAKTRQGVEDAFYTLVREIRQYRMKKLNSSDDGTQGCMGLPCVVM
Method in brief: (§1)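 Running buffer contained 10 µM GDP and 10 mM MgCl2 to keep RAS in the GDP state, with 4% DMSO at pH 7.4. Compounds were flowed at 100 µL/min in 75 s steps of rising concentration over captured biotin-Avi RAS at 30°C. Sensorgrams were fitted 1:1 for KD.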

[2] = biological target: HRAS wild-type protein (Homo sapiens, UniProt P01112); assay: Binding to HRAS by surface plasmon resonance (SPR), KD and KD ratio to KRAS
Chain of HRAS wild-type protein (P01112 whole entry): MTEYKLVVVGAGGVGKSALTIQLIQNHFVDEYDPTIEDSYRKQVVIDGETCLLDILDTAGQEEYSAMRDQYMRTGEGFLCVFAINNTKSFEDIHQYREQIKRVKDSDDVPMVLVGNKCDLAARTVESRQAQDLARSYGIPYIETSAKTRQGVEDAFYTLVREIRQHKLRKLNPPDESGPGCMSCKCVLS
Method in brief: as §1

[3] = system: human lung cancer strain NCI-H441; format: cell-based
Method in brief: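 Step one: dispense the test compound in serial DMSO dilutions. Step three: add the reagent and measure […].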

[4] = ratio of KD for GDP-bound NRAS wild-type protein to KD for KRAS
[5] = ratio of KD for HRAS wild-type protein to KD for KRAS
[6] = ratio of KD value for GDP-bound NRAS wild-type protein to KD value for KRAS (SPR)
[7] = ratio of KD value for HRAS wild-type protein to KD value for KRAS (SPR)
[8] = ratio of the KD value with respect to GDP-bound NRAS wild-type protein to the KD value with respect to KRAS
[9] = ratio of the KD value with respect to HRAS wild-type protein to the KD value with respect to KRAS

| SMILES | IC50 [3] [nM] | NRAS /KRAS [1, 4] | HRAS /KRAS [2, 5] | NRAS /KRAS [1, 6] | HRAS /KRAS [2, 7] | NRAS /KRAS [1, 8] | HRAS /KRAS [2, 9] |
| --- | --- | --- | --- | --- | --- | --- | --- |
| CCCN1C(=O)CN(C)C(=O)CN(CC)C(=O)[C@H]([C@@H](C)CC)NC(=O)[C@H](CC(C)C)N(C)C(=O)C[C@@H](C(=O)N2CCOCC2)NC(=O)[C@H](C2CCCC2)N(C)C(=O)C2(CCC2)NC(=O)[C@@H]2CCCN2C(=O)[C@H](CCc2ccc(C(F)(F)F)c(Cl)c2)NC(=O)CN(C)C(=O)[C@@H]1Cc1ccc(C(F)(F)F)cc1 [PP0332] ([NMeL]I[NEtG][Sar][NPrPhe(4-CF3)][Sar][hPhe(3-Cl-4-CF3)]P[Ac4c][NMeGly(cPent)]D-Morpholide; lactam N-11) | 167 | B (a compound having 3 or more and less than 10 is denoted as B) | B (a compound having 3 or more and less than 10 is denoted as B) |  |  |  |  |
| CCCC[C@H]1C(=O)N[C@@H]([C@@H](C)CC)C(=O)N(C)CC(=O)N(C)[C@H]2C/C=C\CCN(C2=O)[C@@H](Cc2ccc(C(F)(F)F)cc2)C(=O)N(C)CC(=O)N[C@@H](CCc2cc(F)c(C(F)(F)F)c(F)c2)C(=O)N2C[C@H](OCC)C[C@H]2C(=O)NC2(CC(C)(C)C2)C(=O)N(C)[C@@H](C2CCCC2)C(=O)N(C)[C@H](C(=O)N(C)CC)CC(=O)N1C [PP2806] | 11.3 | A (a compound having 10 or more and less than 20 is denoted as A) | A (a compound having 10 or more and less than 20 is denoted as A) |  |  |  |  |
| CCO[C@@H]1C[C@H]2C(=O)NC3(CCC3)C(=O)N(C)[C@@H](C(CC)CC)C(=O)N(C)C(C(C)C)CC(=O)N(C)[C@@H](CC3CC3)C(=O)N[C@@H]([C@@H](C)CC)C(=O)N(C)CC(=O)N(C)[C@H]3C/C=C\CCN(C3=O)[C@@H](Cc3ccc(C(F)(F)F)cc3)C(=O)N(C)CC(=O)N[C@@H](CCc3cc(F)c(C(F)(F)F)c(F)c3)C(=O)N2C1 (stereo partly drawn) [PP1595] | 64.6 |  |  | A (a compound having 10 or more and less than 20 is denoted as A) | A (a compound having 10 or more and less than 20 is denoted as A) |  |  |
| CC[C@H](C)[C@@H]1NC(=O)[C@H](CC(C)C)N(C)C(=O)C[C@@H](C(=O)N2CCOCC2)N(C)C(=O)[C@H](C2CCCC2)N(C)C(=O)C2(CCCC2)NC(=O)[C@@H]2C[C@H](OC)CN2C(=O)[C@H](CCc2cc(F)c(C(F)(F)F)c(F)c2)NC(=O)CN(C)C(=O)[C@H](Cc2ccc(C(F)(F)F)cc2)N2CCCC[C@@H](C2=O)N(C)C(=O)CN(C)C1=O [PP0557] | 14.8 |  |  |  |  | B (a compound having 3 or more and less than 10 is denoted as B) | B (a compound having 3 or more and less than 10 is denoted as B) |
| CCCO[C@H](C)[C@@H]1NC(=O)[C@H](CC(C)C)N(C)C(=O)C[C@@H](C(=O)N2CCOCC2)N(C)C(=O)[C@H](C2CCCC2)N(C)C(=O)C2(CC(C)(C)C2)NC(=O)[C@@H]2CCCN2C(=O)[C@H](CCc2ccc(C(F)(F)F)c(Cl)c2)NC(=O)CN(C)C(=O)[C@H](Cc2ccc(C(F)(F)F)cc2)N(CCC)C(=O)CN(C)C(=O)CN(C)C1=O [PP1965] ([NMeL]T(Propyl)[Sar][Sar][NPrPhe(4-CF3)][Sar][hPhe(3-Cl-4-CF3)]P[Ac4c(3,3-Me2)][NMeGly(cPent)][NMeD]-Morpholide; lactam N-11) | 17.4 |  |  |  |  | B (a compound having 3 or more and less than 10 is denoted as B) | B (a compound having 3 or more and less than 10 is denoted as B) |
| CCO[C@@H]1C[C@H]2C(=O)NC3(CC(C)(C)C3)C(=O)N(C)[C@@H](C(CC)CC)C(=O)N(C)[C@H](C(=O)N(C)C)CC(=O)N(C)[C@@H](C(C)C)C(=O)N[C@@H]([C@@H](C)CC)C(=O)N(C)CC(=O)N(C)[C@H]3C/C=C\CCN(C3=O)[C@@H](Cc3ccc(C)cc3)C(=O)N(C)CC(=O)N[C@@H](CCc3ccc(C(F)(F)F)c(OC)c3)C(=O)N2C1 [PP2173] | 19.9 |  |  |  |  | A (a compound having 10 or more and less than 20 is denoted as A) | A (a compound having 10 or more and less than 20 is denoted as A) |
| CCCN1C(=O)CN(C)C(=O)[C@@H]2CCN2C(=O)[C@H]([C@@H](C)CC)NC(=O)[C@H](CC(C)C)N(C)C(=O)C[C@@H](C(=O)N2CCOCC2)NC(=O)[C@H](C2CCCC2)N(C)C(=O)C2(CCCC2)NC(=O)[C@@H]2CCCN2C(=O)[C@H](CCc2ccc(C(F)(F)F)c(Cl)c2)NC(=O)CN(C)C(=O)[C@@H]1Cc1ccc(C(F)(F)F)cc1 [PP0337] ([NMeL]I[Aze][Sar][NPrPhe(4-CF3)][Sar][hPhe(3-Cl-4-CF3)]P[Ac5c][NMeGly(cPent)]D-Morpholide; lactam N-11) | 333 | B (a compound having 3 or more and less than 10 is denoted as B) | B (a compound having 3 or more and less than 10 is denoted as B) |  |  |  |  |
| CCO[C@@H]1C[C@H]2C(=O)NC3(CCC3)C(=O)N(C)[C@@H](C3CCCC3)C(=O)N(C)[C@H](C(=O)N(C)C)CC(=O)N(C)[C@@H](CC3CCCC3)C(=O)N[C@@H]([C@@H](C)CC)C(=O)N(C)CC(=O)N(C)[C@H]3C/C=C\CCN(C3=O)[C@@H](Cc3ccc(C)cc3)C(=O)N(C)CC(=O)N[C@@H](CCc3cc(Cl)c(C(F)(F)F)c(Cl)c3)C(=O)N2C1 [PP2679] | 17.7 | A (a compound having 10 or more and less than 20 is denoted as A) | A (a compound having 10 or more and less than 20 is denoted as A) |  |  |  |  |
| CCC[C@H]1C(=O)N[C@@H]([C@@H](C)CC)C(=O)N(C)CC(=O)N(C)[C@H]2C/C=C\CCN(C2=O)[C@@H](Cc2ccc(C(F)(F)F)cc2)C(=O)N(C)CC(=O)N[C@@H](CCc2ccc(Cl)c(Cl)c2)C(=O)N2CC[C@H]2C(=O)NC2(CC(C)(C)C2)C(=O)N(C)[C@@H](C(CC)CC)C(=O)N(C)[C@H](C(=O)N(C)C)CC(=O)N1C [PP2921] | 160 | AA (a compound having 20 or more is denoted as AA) | A (a compound having 10 or more and less than 20 is denoted as A) |  |  |  |  |
| CCC[C@H]1C(=O)N[C@@H]([C@@H](C)CC)C(=O)N(C)CC(=O)N(C)[C@H]2C/C=C\CCN(C2=O)[C@@H](Cc2ccc(C)cc2)C(=O)N(C)CC(=O)N[C@@H](CCc2ccc(C(F)(F)F)c(OC)c2)C(=O)N2C[C@H](OCC)C[C@H]2C(=O)NC2(CC(C)(C)C2)C(=O)N(C)[C@@H](C(CC)CC)C(=O)N(C)[C@H](C(=O)N(C)C)CC(=O)N1C [PP2068] | 11.1 |  |  |  |  | A (a compound having 10 or more and less than 20 is denoted as A) | B (a compound having 3 or more and less than 10 is denoted as B) |

More lines, main results first:

| IC50 [3] [nM] | SMILES | NRAS /KRAS [1, 4] | HRAS /KRAS [2, 5] | NRAS /KRAS [1, 6] | HRAS /KRAS [2, 7] | NRAS /KRAS [1, 8] | HRAS /KRAS [2, 9] |
| --- | --- | --- | --- | --- | --- | --- | --- |
| 4.1 | CCO[C@@H]1C[C@H]2C(=O)NC3(CC(C)(C)C3)C(=O)N(C)[C@@H](C3CCCC3)C(=O)N(C)[C@H](C(=O)N(C)C)CC(=O)N(C)[C@H]3CCCCCc4ccc(cc4)C[C@@H](C(=O)N(C)CC(=O)N[C@@H](CCc4ccc(Cl)c(Cl)c4)C(=O)N2C1)N1CC/C=C\C[C@@H](C1=O)N(C)C(=O)CN(C)C(=O)[C@H]([C@@H](C)CC)NC3=O [PP3076] | AA (a compound having 20 or more is denoted as AA) | A (a compound having 10 or more and less than 20 is denoted as A) |  |  |  |  |
| 10.3 | CCCC[C@H]1C(=O)N[C@@H]([C@@H](C)CC)C(=O)N(C)CC(=O)N(C)[C@H]2C/C=C\CCN(C2=O)[C@@H](Cc2ccc(C(F)(F)F)cc2)C(=O)N(C)CC(=O)N[C@@H](CCc2cc(F)c(C(F)(F)F)c(F)c2)C(=O)N2C[C@H](OCC)C[C@H]2C(=O)NC2(CCC2)C(=O)N(C)[C@@H](C2CCCC2)C(=O)N(C)[C@H](C(=O)N(C)CCC)CC(=O)N1C [PP1704] |  |  | A (a compound having 10 or more and less than 20 is denoted as A) | A (a compound having 10 or more and less than 20 is denoted as A) |  |  |
| 11.1 | CCCOC[C@H]1C(=O)N[C@@H]([C@@H](C)CC)C(=O)N(C)CC(=O)N(C)[C@H]2C/C=C\CCN(C2=O)[C@@H](Cc2ccc(C(F)(F)F)cc2)C(=O)N(C)CC(=O)N[C@@H](CCc2cc(F)c(Cl)c(F)c2)C(=O)N2C[C@H](OCC)C[C@H]2C(=O)NC2(CC(C)(C)C2)C(=O)N(C)[C@@H](C2CCCC2)C(=O)N(C)[C@H](C(=O)N(C)C)CC(=O)N1C [PP1764] |  |  | AA (a compound having 20 or more is denoted as AA) | A (a compound having 10 or more and less than 20 is denoted as A) |  |  |
| 6.2 | CC[C@H](C)[C@@H]1NC(=O)[C@H](C2CCC2)N(C)C(=O)C[C@@H](C(=O)N(C)CC)N(C)C(=O)[C@H](C2CCCC2)N(C)C(=O)C2(CCC2)NC(=O)[C@@H]2C[C@H](C)CN2C(=O)[C@H](CCc2ccc(C(F)(F)F)c(OC)c2)NC(=O)CN(C)C(=O)[C@H](Cc2ccc(C(F)(F)F)cc2)N2CC/C=C\C[C@@H](C2=O)N(C)C(=O)CN(C)C1=O [PP2071] |  |  |  |  | A (a compound having 10 or more and less than 20 is denoted as A) | A (a compound having 10 or more and less than 20 is denoted as A) |
| 7.4 | CCC[C@H]1C(=O)N[C@@H]([C@@H](C)CC)C(=O)N(C2CC2)CC(=O)N(C)[C@H]2C/C=C\CCN(C2=O)[C@@H](Cc2ccc(C(F)(F)F)cc2)C(=O)N(C)CC(=O)N[C@@H](CCc2ccc(C(F)(F)F)c(OC)c2)C(=O)N2C[C@H](OCC)C[C@H]2C(=O)N(C)C2(CCC2)C(=O)N(C)[C@@H](C(CC)CC)C(=O)N(C)[C@H](C(=O)N(C)C)CC(=O)N1C [PP2313] |  |  |  |  | AA (a compound having 20 or more is denoted as AA) | A (a compound having 10 or more and less than 20 is denoted as A) |
